Results as given in the supplement of paper PMC10307832.

What was measured:
Assay in all cases: relative viability (nuclei count vs DMSO), 5 days (fraction); higher = more cells survive
Ispinesib + Tozasertib = compound: Cc1ccc(C(=O)N(CCCN)[C@@H](c2nc3cc(Cl)ccc3c(=O)n2Cc2ccccc2)C(C)C)cc1 [Ispinesib] + Cc1cc(Nc2cc(N3CCN(C)CC3)nc(Sc3ccc(NC(=O)C4CC4)cc3)n2)n[nH]1 [Tozasertib] (partner 0.1 µM)
In short: (§1)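 The day after seeding in 1536-well plates, lung cancer cell lines were treated by pin tool with a single drug, or with a fixed anchor-drug dose together with five library-drug doses (not always all listed) in √10 steps. After 5 days, a combined fix-and-stain solution (final 0.05% Triton X-100, 1% formaldehyde, 1 ug/ml Hoechst) was added. Nuclei counted on 4× images gave relative viability as treated counts over vehicle counts, reported as the median of duplicate plates.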

Ispinesib + Lapatinib = compound: Cc1ccc(C(=O)N(CCCN)[C@@H](c2nc3cc(Cl)ccc3c(=O)n2Cc2ccccc2)C(C)C)cc1 [Ispinesib] + CS(=O)(=O)CCNCc1ccc(-c2ccc3ncnc(Nc4ccc(OCc5cccc(F)c5)c(Cl)c4)c3c2)o1 [Lapatinib] (partner 2 µM)
In short: as §1

Linsitinib + Phenformin = compound: C[C@]1(O)C[C@@H](c2nc(-c3ccc4ccc(-c5ccccc5)nc4c3)c3c(N)nccn32)C1 [Linsitinib] + N=C(N)NC(=N)NCCc1ccccc1 [Phenformin] (partner 250 µM)
In short: as §1

Ispinesib = compound: Cc1ccc(C(=O)N(CCCN)[C@@H](c2nc3cc(Cl)ccc3c(=O)n2Cc2ccccc2)C(C)C)cc1 [Ispinesib]
In short: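 For viability, nuclei in each treated well were divided by nuclei in vehicle wells and the median across plates was taken. Lung cancer cell lines in 1536-well plates were pinned with five library-drug doses (not always all listed) spaced by √10, cultured 5 days without medium change, and imaged at 4× after Hoechst staining, with plates passing only at control CV below 25% and at least one doubling.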

Cell Line | relative viability (Ispinesib + Tozasertib; first compound 0.001 µM) | relative viability (Ispinesib + Tozasertib; first compound 0.003162 µM) | relative viability (Ispinesib + Tozasertib; first compound 0.01 µM) | relative viability (Ispinesib + Tozasertib; first compound 0.03162 µM) | relative viability (Ispinesib + Tozasertib; first compound 0.1 µM) | relative viability (Ispinesib + Lapatinib; first compound 0.001 µM) | relative viability (Ispinesib + Lapatinib; first compound 0.003162 µM) | relative viability (Ispinesib + Lapatinib; first compound 0.01 µM) | relative viability (Ispinesib + Lapatinib; first compound 0.03162 µM) | relative viability (Ispinesib + Lapatinib; first compound 0.1 µM) | relative viability (Linsitinib + Phenformin; first compound 0.01 µM) | relative viability (Linsitinib + Phenformin; first compound 0.03162 µM) | relative viability (Linsitinib + Phenformin; first compound 0.1 µM) | relative viability (Linsitinib + Phenformin; first compound 1 µM) | relative viability (Ispinesib; 0.001 µM) | relative viability (Ispinesib; 0.003162 µM) | relative viability (Ispinesib; 0.01 µM) | relative viability (Ispinesib; 0.03162 µM) | relative viability (Ispinesib; 0.1 µM) | relative viability (Linsitinib + Phenformin; first compound 0.3162 µM)
NCI-H3122 | 0.408 | 0.402 | 0.462 | 0.212 | 0.17 | 0.986 | 1.01 | 1.07 | 0.72 | 0.21 | 0.378 | 0.352 | 0.309 | 0.335 | 1.09 | 1.06 | 1.01 | 0.779 | 0.172 | 
PC-3 [JPC-3] | 0.899 | 0.902 | 0.961 | 1.01 | 0.59 | 0.456 | 0.486 | 0.439 | 0.413 | 0.318 | 0.464 | 0.48 | 0.515 | 0.45 | 1.06 | 1.15 | 1.09 | 0.909 | 0.533 | 0.436
PC-14 | 0.662 | 0.669 | 0.624 | 0.433 | 0.0644 | 0.331 | 0.397 | 0.363 | 0.421 | 0.125 | 0.623 | 0.523 | 0.58 | 0.395 | 1.06 | 1.09 | 0.898 | 0.404 | 0.121 | 0.533
RERF-LC-KJ | 0.593 | 0.412 | 0.329 | 0.262 | 0.354 | 1.02 | 0.835 | 0.931 | 0.831 | 0.304 | 0.408 | 0.368 | 0.463 | 0.409 | 1.04 | 0.975 | 1.03 | 0.684 | 0.331 | 0.425
SK-LU-1 | 0.393 | 0.335 | 0.31 | 0.288 | 0.289 | 0.797 | 1.06 | 0.825 | 0.468 | 0.364 | 0.558 |  | 0.588 | 0.325 | 1.15 | 1.15 | 1.16 | 0.881 | 0.592 | 0.391
SK-MES-1 | 0.983 | 1.03 | 0.949 | 0.217 | 0.215 | 0.534 | 0.506 | 0.54 | 0.5 | 0.168 | 0.645 | 0.658 | 0.645 | 0.479 | 1.06 | 1.11 | 1.06 | 0.56 | 0.252 | 0.491
SW 1573 | 0.18 | 0.19 | 0.174 | 0.194 | 0.131 | 1.22 | 1.16 | 1.3 | 1.25 | 0.238 | 0.359 | 0.335 | 0.311 | 0.203 | 1.01 | 0.973 | 1.1 | 0.666 | 0.343 | 0.244
